Numbered stars: 1 amine (or outer) side, 2 acyl side, 3 side chain; on linkers, the order of the positions; unused ones are H or OH. Peptide text beside a SMILES is read from it. * marks the point of attachment. AMC = Cc1cc(=O)oc2cc(N*)ccc12; Suc = O=C(CCC(=O)[*:2])[*:1]; Cbz = O=C(OCc1ccccc1)*; OtBu = CC(C)(C)O*
System: proteasome in MV4‐11 cells
Test: Cellular conversion of fluorogenic proteasome substrates (assay validation)
Type: cell-based
Procedure: First, we benchmarked the fluorogenic substrate 30 towards the standard substrate 31 (Suc‐LLVY‐AMC) using varying substrate concentrations and cell numbers of MV4‐11 cells (Figure 5b). The highest substrate conversion was detected using 100 μM 30 in 50.000 cells (135 rfu/min) in MV4‐11 cells and was converted ∼4 times faster than 31 (33.3 rfu/min). There was an increase of differences in conversion rates with smaller number of cells (10.000 cells, 100 μM substrate: 10‐fold conversion) and lower substrate concentration (50.000 cells, 25 μM substrate: 15‐fold conversion).
In‐cell determination of proteasome IC 50. […] Inhibitors were serially diluted in RPMI‐1640 medium as 10‐fold stocks, added to cells giving final concentrations and incubated for 0 h–13 h at 37 °C and 5 % CO2 (Figure S5–S8). Substrate was added to give a final concentration of 30 μM and substrate conversion was detected by fluorescence measurement over 100 min (assay validation) or 60 min (inhibition assays) using a Tecan M1000 microplate reader. Rate of fluorescence change over time was calculated, rates for negative (no‐cell) control was subtracted and normalized to positive control (no inhibitor). Dose‐response curves were fitted to the equation “Y=100/(1+10^((L°^gIC50−X)*HillSl°^pe))” using GraphPad Prism 7.02 (SI chapter 2b, Figure S2–S4).

[1] = 100 μM substrate, 50.000 MV4‐11 cells

Row | SMILES | conversion of 30 relative to 31 [1] [times] | substrate conversion [1] [rfu/min] | conversion of 30 relative to 31 (10.000 cells, 100 μM substrate) [fold] | conversion of 30 relative to 31 (50.000 cells, 25 μM substrate) [fold]
1 | Cc1cc(=O)oc2cc(NC(=O)[C@H](C)NC(=O)[C@H](CC(=O)OC(C)(C)C)NC(=O)[C@H](CC(C)C)NC(=O)OCc3ccccc3)ccc12 [Compound 30, Z‐LD(OtBu)A‐AMC] (Cbz-Leu-Asp(OtBu)-Ala-{AMC}) | ~4 | 135 | 10 | 15
2 | Cc1cc(=O)oc2cc(NC(=O)[C@H](Cc3ccc(O)cc3)NC(=O)[C@@H](NC(=O)[C@H](CC(C)C)NC(=O)[C@H](CC(C)C)NC(=O)CCC(=O)O)C(C)C)ccc12 [Compound 31, Suc‐LLVY‐AMC] (Suc-LLVY-{AMC}) |  | 33.3 |  | 
